For three compounds, IC50 and EC50 results are on record in patent US7754718B2 (priority 2004, dated 2010).

For one assay, the system named is HepG2 cells. As to the kind of experiment: Cell cytotoxicity assay on HepG2 cells, methylene blue staining. In kind it is cell-based. To be noted: Homo sapiens, 72 h, concentration that inhibited 50% of cell growth, 3 days. The protocol: Cytotoxicities of test compounds on MT-2 (Mellors et al., 1992 Mol. Pharmacol. 41:446-451) and CEM (Grove et al., 1995, Cancer Res. 55:3008-3011) cells were determined according to the previously reported procedures. Hepg2 cells were seeded at a density of 10^4 cells/ml/well in 24-well plates and cultured in MEME supplemented with 10% FBS at 37° C. and 5% CO2. Each test compound at different concentrations was added on the second day of the culture and the cells were incubated for another 3 days. At the end of the incubation period, the medium was removed and 0.5 ml of 0.5% methylene blue in 50% ethanol (v/v) was added to each well and set at room temperature for 30-60 minutes. The methylene blue was removed; the plates were washed with water and allowed to air dry. Once dry, 1% sarcosyl was added to dissolve the stained cell layer. The absorbance at 595 nm was measured with a microplate reader (Molecular Devices Corp. Sunnyvale, Calif.). The cytotoxicity to CEM cell was calculated as described previously (Grove et al., 1995, Cancer Res. 55 (14): 3008-3011).

A further assay concerns EBV. As to the kind of experiment: In vitro antiviral assay for EBV. To be noted: human gammaherpesvirus 4, read-out: Antiviral Activities (EC50, μM) EBV. The assay is classed as cell-based, Epstein-Barr Virus. Put shortly:
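Performed according to previously reported procedures for each virus; no further conditions are given for the HSV-2, CMV, HIV or EBV assays.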

The test system of the next assay is wt (adr) HBV. The assay can be described thus: Extracellular HBV DNA in W10 cells, real-time PCR. The assay is classed as cell-based. To be noted: Hepatitis B virus, 144 h, 6-day treatment, HBV DNA in medium by real-time PCR. From the text: (§1) Hep.G2.2.15 is a hepatoblastoma cell line stably transfected with a HBV genome (ayw strain) (Sells et al., 1987, Proc Natl Acad Sci USA. 84 (4):1005-1009). W10, a HepG2 cell line, was transfected with an adr HBV strain (Fu et al., 2000, Antimicrob Agents Chemother 44 (12): 3402-3407; Fu et al., 1999, Biochem Pharmacol. 57 (12): 1351-1359). These cell lines were used to assess the antiviral activity of helioxanthin and 22. Various concentrations of the drugs in minimal essential medium with Earle's salts (MEME) containing 10% fetal bovine serum (FBS) were tested in 6-day-old cultures. The drugs were left in the culture medium for 3 days, then the medium was removed and fresh medium containing the same concentration of the drugs was added. At the end of another 3-day period, the culture medium and cells were harvested to measure the HBV replication level. The Lamivudine resistant cell line DM2 (Fu et al., 2000, Antimicrob Agents Chemother 44 (12): 3402-3407) is also a hepatoblastoma cell line stably transfected with HBV genome (adr strain) which contains the L526M/M550V double mutation. The culture conditions of DM2 are the same as that of HepG.2.2.15.
(§2) Quantitative real-time PCR was used to determine the extracellular HBV copy number in the medium of DM2 cells with and without drug treatment. […] Quantification of the copy number was determined by comparing the sample amount to a standard curve generated in each run. […]
(§3) W10 and DM2 cells (Fu et al., 2000, Antimicrob Agents Chemother 44 (12): 3402-3407), were used to evaluate the effects of these two compounds on wt HBV (adr strain) and its lamivudine-resistant HBV. […] After a 6-day treatment, the amount of HBV DNA, which was secreted into the medium, was evaluated using real-time PCR (FIG. 3). […] The real-time PCR method was validated by comparing the results of intracellular HBV DNA levels obtained from the Southern blot hybridization analysis to the results from real-time PCR that measured HBV DNA copies in the HepG2.2.15 medium with or without treatment of lamivudine. […]

The next assay concerns L526M/M550V (adr) HBV. The assay can be described thus: Extracellular HBV DNA in lamivudine-resistant DM2 cells, real-time PCR. To be noted: Hepatitis B virus, 144 h, read-out: EC50 (μM) L526M/M550V (adr). The assay is classed as cell-based.
Excerpt: as §1, §2, §3

The subject of a further assay is HBV. The assay can be described thus: In vitro antiviral assay for HBV (Table 1). The assay is classed as cell-based, Hepatitis B virus. To be noted: Hepatitis B virus, read-out: Antiviral Activities (EC50, μM) HBV.

As to `O=C1OCc2c1cc1ccc3c(c1c2-c1ccc2c(c1)OCO2)OCO3` [Compound 2, 10-Benzo[1,3]dioxol-5-yl-9H-furo[3′,4′:6,7]naphtho[1,2-d][1,3]dioxol-7-one, reference compound], in the assay on HepG2 cells, half-maximal inhibition (IC50) required 6 µM. Besides, the EC50 with EBV was greater than 20 µM; in the assay on wt (adr) HBV, 0.4 µM; in the assay on L526M/M550V (adr) HBV, 0.1 µM; in the assay on HBV, 1 µM.
For `Nc1ccn([C@@H]2CS[C@H](CO)O2)c(=O)n1` [Compound 3TC, (−)-(2R,5S)-1-[2-(hydroxymethyl)oxathiolan-5-yl]cytosine], in that order: greater than 100 µM, 0.4 µM, 0.02 ± 0.03 µM, greater than 3 µM and 0.02 µM.
For `COc1ccc(-c2c3c(cc4ccc5c(c24)OCO5)C(=O)NC3)cc1OC` [Compound 22, 10-(3,4-Dimethoxy-phenyl)-8,9-dihydro-1,3-dioxa-8-aza-dicyclopenta[a,g]naphthalen-7-one], in that order: 2 µM, greater than 20 µM, 0.004 µM, 0.0003 µM and 0.9 µM.

Broadly, the IC50 is the concentration at which inhibition is half-maximal. A lower IC50 goes with greater potency in that assay.
